Holding throughout (assay type): functional, cell-based
For one test, the system named is HepG2. Description: Antiproliferative activity against human HepG2 cells after 48 hrs by MTT assay. The settings on record: HepG2, 48 h. A general note: Formazan colour is commonly taken as a measure of viable cells.
A further test concerns MCF7. The test can be described thus: Antiproliferative activity against human MCF7 cells after 48 hrs by MTT assay. The following applies: MCF7, 48 h.
A further test relates to HCT-116. The test can be described thus: Antiproliferative activity against human HCT-116 cells after 48 hrs by MTT assay. The settings on record: HCT-116, 48 h.
Another test relates to HeLa. Description: Antiproliferative activity against human HeLa cells after 48 hrs by MTT assay.

One may read the IC50 as the point on the concentration scale where inhibition reaches its midpoint. A low value points to greater potency. Consider `CC(=O)O[C@H]1[C@@H](OC(C)=O)[C@@H](C)O[C@@H](O[C@H]2CC[C@@]3(C)C(=CC[C@]4(O)[C@@H]3C[C@@H](OC(=O)/C=C(\C)C(C)C)[C@@]3(C)[C@]4(O)CC[C@@]3(O)C(C)=O)C2)[C@@H]1OC(C)=O`, for which the half-maximal inhibitory concentration (IC50) turned out to be 23.8 µM in the test with HepG2, 38.3 µM in the test with MCF7, 20.3 µM in the test on HCT-116 and 44.3 µM with HeLa.
Turning to `CC(=O)OC[C@H]1O[C@H](O[C@H]2CC[C@@]3(C)C(=CC[C@]4(O)[C@@H]3C[C@@H](OC(=O)/C=C(\C)C(C)C)[C@@]3(C)[C@]4(O)CC[C@@]3(O)C(C)=O)C2)[C@@H](OC(C)=O)[C@@H](OC(C)=O)[C@@H]1OC(C)=O`, the IC50 in the test on HepG2 was found to be 23.7 µM; with MCF7, 42.7 µM; in the test on HCT-116, 15.6 µM; in the test on HeLa, 70.2 µM.
For `CC(=O)[C@]1(O)CC[C@@]2(O)[C@]1(C)[C@H](OC(=O)/C=C(\C)C(C)C)C[C@@H]1[C@@]3(C)CC[C@H](O[C@H]4C[C@H](O)[C@H](O)CO4)CC3=CC[C@]12O` the same measures were 39.8 µM, 93 µM, 36.8 µM and 86.5 µM.
On to `CC(=O)O[C@@H]1[C@@H](O[C@H]2CC[C@@]3(C)C(=CC[C@]4(O)[C@@H]3C[C@@H](OC(=O)/C=C(\C)C(C)C)[C@@]3(C)[C@]4(O)CC[C@@]3(O)C(C)=O)C2)OC[C@@H](OC(C)=O)[C@H]1OC(C)=O`, for which the IC50 in the test on HepG2 was found to be 52.8 µM; with MCF7, 52.6 µM; in the test with HCT-116 it was 29.6 µM; in the test on HeLa, 60.5 µM.
Turning to `CC(=O)[C@]1(O)CC[C@@]2(O)[C@]1(C)[C@H](OC(=O)c1ccc(O)cc1)C[C@@H]1[C@@]3(C)CC[C@H](O[C@@H]4O[C@@H](C)[C@H](O)[C@@H](O)[C@H]4O)CC3=CC[C@]12O`, the IC50 with HepG2 stood at 54.6 µM; in the test with MCF7, 88.5 µM; in the test with HCT-116, 60.3 µM; in the test with HeLa, 91.3 µM.
For `CC(=O)[C@]1(O)CC[C@@]2(O)[C@]1(C)[C@H](OC(=O)/C=C(\C)C(C)C)C[C@@H]1[C@@]3(C)CC[C@H](O)CC3=CC[C@]12O` [CAUDATIN] the same measures were 65.9 µM, greater than 100 µM, 64.1 µM and greater than 100 µM.
Turning to `CC(=O)O[C@H]1[C@H](OC(C)=O)[C@@H](O[C@H]2CC[C@@]3(C)C(=CC[C@]4(O)[C@@H]3C[C@@H](OC(=O)/C=C(\C)C(C)C)[C@@]3(C)[C@]4(O)CC[C@@]3(O)C(C)=O)C2)O[C@@H](C)[C@H]1OC(C)=O`, the IC50 came to 18.9 µM in the test on HepG2, 31.5 µM with MCF7, 18.4 µM with HCT-116 and 31.7 µM with HeLa.
For the compound `CC(=O)[C@]1(O)CC[C@@]2(O)[C@]1(C)[C@H](OC(=O)/C=C(\C)C(C)C)C[C@@H]1[C@@]3(C)CC[C@H](O[C@@H]4OC[C@H](O)[C@H](O)[C@H]4O)CC3=CC[C@]12O`, the IC50 in the test on HepG2 is 87.5 µM; in the test on MCF7 it was greater than 100 µM; in the test with HCT-116, greater than 100 µM; in the test on HeLa, greater than 100 µM.
In the case of `CC(=O)OC[C@H]1O[C@@H](O[C@H]2CC[C@@]3(C)C(=CC[C@]4(O)[C@@H]3C[C@@H](OC(=O)c3ccc(O)cc3)[C@@]3(C)[C@]4(O)CC[C@@]3(O)C(C)=O)C2)[C@H](OC(C)=O)[C@@H](OC(C)=O)[C@@H]1OC(C)=O`, the IC50 is 74.5 µM with HepG2, 90.9 µM with MCF7, 66.2 µM with HCT-116 and 95.8 µM with HeLa.
As for `CC(=O)O[C@@H]1[C@@H](OC(C)=O)[C@H](C)O[C@@H](O[C@H]2CC[C@@]3(C)C(=CC[C@]4(O)[C@@H]3C[C@@H](OC(=O)/C=C/c3ccccc3)[C@@]3(C)[C@]4(O)CC[C@@]3(O)[C@H](C)OC(=O)c3cccnc3)C2)[C@@H]1OC(C)=O`, the IC50 was 69.1 µM in the test on HepG2, greater than 100 µM with MCF7, 71.4 µM with HCT-116 and greater than 100 µM in the test on HeLa.

The values above are taken from ChEMBL document CHEMBL5143557, “Synthesis and biological evaluation of 3β-O-neoglycosides of caudatin and its analogues as potential anticancer agents” (Bioorg Med Chem, 2022).
